Activity calls are given as the source filed them. No cut-off for these calls is given here.
Assays:
[1] = target: T1, Glutamate NMDA receptor (Rattus norvegicus) (UniProt P35439+Q00959+Q00960+Q00961+Q62645+Q8VHN2+Q9R1M7); test: Effective dose required for agonistic activity against N-methyl-D-aspartate glutamate receptor was determined in rat cortical slice preparation; assay type: functional
[2] = target: T1, Glutamate NMDA receptor (Rattus norvegicus); test: Agonistic activity against N-methyl-D-aspartate glutamate receptor was determined in rat cortical slice preparation at concentration up to 5 mM; Not active; assay type: functional
[3] = target: T1, Glutamate NMDA receptor (Rattus norvegicus); test: Antagonistic activity against N-methyl-D-aspartate glutamate receptor antagonist was determined in rat cortical slice preparation at concentration up to 100 mM; Active; assay type: functional
[4] = target: T1, Glutamate NMDA receptor (Rattus norvegicus); test: Antagonistic activity against N-methyl-D-aspartate glutamate receptor antagonist was determined in rat cortical slice preparation at concentration up to 5 mM; not active; assay type: functional
[5] = target: T1, Glutamate NMDA receptor (Rattus norvegicus); test: Antagonistic activity against N-methyl-D-aspartate glutamate receptor antagonist was determined in rat cortical slice preparation at concentration up to 1 mM; not active; assay type: functional
[6] = target: T1, Glutamate NMDA receptor (Rattus norvegicus); test: Antagonistic activity against N-methyl-D-aspartate glutamate receptor antagonist was determined in rat cortical slice preparation at concentration up to 100 mM; not active; assay type: functional
[7] = target: T1, Glutamate NMDA receptor (Rattus norvegicus)

| ED50 [1] [µM] | ED50 [2] | Compound | further results |
| --- | --- | --- | --- |
| 35 |  | O=C(O)[C@@H]1CCCN[C@H]1C(=O)O (relative stereo) |  |
|  | inactive | O=C(O)[C@H]1CCN[C@@H](C(=O)O)C1 (relative stereo) | A [3]: Active |
|  | inactive | O=C(O)[C@H]1CC[C@H](C(=O)O)NC1 (relative stereo) | NA [4]: inactive |
|  |  | O=C(O)[C@@H]1CC[C@H](C(=O)O)NC1 (relative stereo) | NA [5]: inactive |
|  | inactive | O=C(O)[C@@H]1CCC[C@H](C(=O)O)N1 | NA [4]: inactive |
| 15 |  | O=C(O)[C@H]1CCCN[C@H]1C(=O)O (relative stereo) | NA [6]: inactive |
|  |  | CN[C@H](CC(=O)O)C(=O)O | ED50 [7]: 15 µM |
| 60 |  | O=C(O)[C@@H]1CCN[C@@H](C(=O)O)C1 (relative stereo) |  |
